Values joined by “and” are separate entries in the source; they are usually repeats but may differ in a detail not shown here. Equal values may be shown once.
Legend:
A2780 = assay: MTT cell proliferation assay; format: cell-based, human; details: for IC50: Homo sapiens, A2780, MTT, 72 h treatment, n = 3, read-out: IC50 (µM ± SD) A2780; for Selectivity index A2780: IC50 MRC-5 / IC50 A2780
Experimental: (§1) MCF-7 (human breast adenocarcinoma), A2780 (human ovarian cancer) and HCT116 (human colorectal carcinoma), and MRC-5 (normal foetal lung fibroblast) cell lines were bought from the ATCC and were cultured in flasks which were incubated at 37 °C in an atmosphere of 5% CO2, 95% air, and 100% relative humidity, to maintain continuous logarithmic growth. MCF-7, A2780, and HCT116 were maintained in RPMI-1640 media (100 U/mL penicillin, 100 µg/mL streptomycin, and 10% foetal bovine serum, Gibco, Carlsbad, CA). MRC-5 cells were maintained in EMEM (100 U/mL penicillin, 100 µg/mL streptomycin, and 10% foetal bovine serum, Gibco, Carlsbad, CA). Doxorubicin (5 μg/mL, for three months) added for RPMI-1640 media containing MCF7 cells was used to develop doxorubicin-resistant MCF7/ADR cells. All cancer and normal cell lines were cultured according to our previous report. Cells were used within 10–20 passages and were checked for mycoplasma every 6 months, by measuring the bioluminescence (Myco Alert sample detection kit; Lonza, Basel, Switzerland) using the multiplate reader (Synergy HT, BioTek, Winooski, VT).
(§2) The MTT assay was used to measure the cytotoxicity and growth inhibitory activities and cytotoxicity of the new compounds according to our previous report[13]^,[17]. Cells from flasks of 70–80% confluency were separately seeded in 96-well flat-bottom microculture plates (Nalgene-Nunc, Thermo Fisher Scientific, Roskilde, Denmark) at a density of 3 × 10^3 cells (MCF-7, A2780, and MRC-5), 1 × 10^4 cells (HCT116), to a volume of 180 μL/well of culture medium. A Neubauer haemocytometer was used for cell counting. Cells were incubated at 37 °C overnight to allow attachment to the wells. The final concentrations of each compound in wells were: 0–50 μM in 200 μL of media (DMSO 0.1%). Lapatinib (Cayman, Ann Arbor, MI) was used as a positive control at the same final concentrations. Medium only (20 μL) was added to each control well, and each concentration was tested in triplicates (n = 3). Following incubation for 72 h, 50 μL MTT was added into each well. Plates were incubated for 3 h, the supernatant was aspirated, and 100 μL of DMSO was added to each well. The optical density (OD) of the purple formazan is proportional to the number of viable cells. […] GraphPad Prism version 5.00 for Windows was used for analysis (La Jolla, CA). Cytotoxicity of the new compounds was calculated after treatment of cancer/normal cell lines for 72 h. The absorbance of the reduced MTT was determined using a microplate reader A570 nm.
(§3) The cytotoxic activity of the new compounds (15a–e, 16a–e, 20, and 21) was evaluated in vitro using MTT assay. The MTT assay depends on the reduction of the yellow tetrazole dye (MTT) to the purple formazan by the active mitochondrial dehydrogenase enzymes indicating the viability of the cells which can be measured as OD. The new compounds were evaluated against three non-resistant cancer cell lines: MCF-7, and A2780 cell lines were selected to compare cytotoxicity of the new compounds with the previously reported results of compounds 9a,b[13]. Cytotoxicity of the new compounds was also evaluated also against HCT116 cells which lacks COX-2 protein[33]^,[34].

HCT116 = assay: MTT cell proliferation assay; format: cell-based, human; details: for IC50: Homo sapiens, HCT-116, MTT, 72 h treatment, n = 3, read-out: IC50 (µM ± SD) HCT116; for Selectivity index HCT116: IC50 MRC-5 / IC50 HCT116
Experimental: as §1, §2, §3

MCF-7 = assay: MTT cell proliferation assay; format: cell-based, human; details: for IC50: Homo sapiens, MCF7, MTT, 72 h treatment, n = 3, read-out: IC50 (µM ± SD) MCF-7; for Selectivity index MCF-7: IC50 MRC-5 / IC50 MCF-7
Experimental: as §1, §2, §3

[1] = tested on: MCF-7, HCT116, and A2780 cancer cell lines; assay: MTT assay, three cancer cell lines taken together (average, overall range); format: cell-based, human; details: Homo sapiens; MCF-7, HCT116, A2780; read-out: Average of the three IC50 values against the three cancer cell lines
Experimental: Cells from flasks of 70–80% confluency were separately seeded in 96-well flat-bottom microculture plates (Nalgene-Nunc, Thermo Fisher Scientific, Roskilde, Denmark) at a density of 3 × 10^3 cells (MCF-7, A2780, and MRC-5), 1 × 10^4 cells (HCT116), to a volume of 180 μL/well of culture medium. […] The final concentrations of each compound in wells were: 0–50 μM in 200 μL of media (DMSO 0.1%). Lapatinib (Cayman, Ann Arbor, MI) was used as a positive control at the same final concentrations. Medium only (20 μL) was added to each control well, and each concentration was tested in triplicates (n = 3). Following incubation for 72 h, 50 μL MTT was added into each well. Plates were incubated for 3 h, the supernatant was aspirated, and 100 μL of DMSO was added to each well. The optical density (OD) of the purple formazan is proportional to the number of viable cells. […] The absorbance of the reduced MTT was determined using a microplate reader A570 nm.

normal MRC-5 cells = assay: MTT assay, normal cells (cytotoxic selectivity); format: cell-based; details: Homo sapiens, MRC5, 72 h treatment, n = 3, read-out: IC50 (µM ± SD) MRC-5
Experimental: as §1, §2
Selectivity towards cancerous cells is one of the important issues which must be considered during the discovery and development of new anticancer agents. To assess the toxicity and selectivity of the new compounds (15a–e, 16a–e, 20, and 21), their growth inhibitory activities against normal human foetal lung fibroblast MRC-5 cells were evaluated using the MTT assay. […] The selectivity of the new compounds towards each of the three cancer cell lines was calculated by dividing their IC50 values against normal MRC-5 cells by their IC50 values against the corresponding cancer cell line (Table 3).

MCF-7 cells = assay: Annexin V-FITC/PI apoptosis assay; format: cell-based, human; details: 0.1 μM, 24 h; for % Cell number, Early apoptosis / % Cell number, Late apoptosis / % Cell number, Live cells / % Cell number, Necrosis: n = 3
Experimental: The ability of compounds 16a,b,d to induce apoptotic changes in MCF-7 cells was determined by Annexin V-FITC/PI staining according to the previous report[13]^,[18]^,[19]. Additionally, the morphological changes in MCF-7 cells were examined by microscope. Following treatment with the test compounds at 0.1 µM for 24 h, the cells were stained with annexin V and PI. The determination of necrotic, early/late apoptotic changes were performed by flow cytometer (FC500, Beckman Coulter, Miami, FL).
The cytotoxic activity of our previously reported pyrrolizine-5-carboxamide 9a was mediated by the induction of apoptosis in MCF-7 cells[13]^,[19]. […] The cancer cells were treated with the test compounds (0.1 μM) for 24 h. The induction of apoptosis in MCF-7 cells by the selected compounds was investigated using annexin V fluorescein isothiocyanate (FITC)/propidium iodide (PI) staining assay. The assay procedures were the same as those applied in the previous report. Compound 16a increased apoptosis (early and late events) in MCF-7 cells to 19% compared to 1% in the control. Moreover, compound 16b caused a significant increase of MCF-7 apoptotic cells which was similar to the effect of compound 16a.

CDK-2 = target: T1, CDK-2 (Homo sapiens, UniProt P24941); assay: CDK-2 inhibitory assay (ADP-Glo); format: biochemical; details: three determinations, read-out: IC50 (μM) ± SEM CDK-2
T1 construct: purchased Promega, Madison, WI
Source text: The assay was done according to the manufacturer’s instructions and as described in the previous report[21].

Structure (SMILES) | IC50 (A2780) | Selectivity index A2780 (A2780) | IC50 (HCT116) | Selectivity index HCT116 (HCT116) | IC50 (MCF-7) | Selectivity index MCF-7 (MCF-7) | IC50 [1] | IC50 (normal MRC-5 cells) | % Cell number, Early apoptosis (MCF-7 cells) | % Cell number, Late apoptosis (MCF-7 cells) | % Cell number, Live cells (MCF-7 cells) | % Cell number, Necrosis (MCF-7 cells) | apoptosis (early and late events) (MCF-7 cells; control 1%) | IC50 (CDK-2) | melting point
COc1cc(C(=O)Nc2c(C#N)c3n(c2C(=O)Nc2ccccc2)CCC3)cc(OC)c1OC [16a, 7-Cyano-N-phenyl-6-(3,4,5-trimethoxybenzamido)-2,3-dihydro-1H-pyrrolizine-5-carboxamide] | 0.044 ± 0.01 µM | 3.52 | 0.135 ± 0.007 µM | 1.15 | 0.082 ± 0.002 µM | 1.89 | 0.087 µM | 0.155 ± 0.062 µM | 8.40 ± 0.87% | 10.70 ± 1.06% | 77.40 ± 1.39% | 3.50% and 3.50 ± 0.37% | 19% | 0.086 ± 0.016 µM | 253 to 255 °C
COc1cc(C(=O)Nc2c(C#N)c3n(c2C(=O)Nc2ccc(C)cc2)CCC3)cc(OC)c1OC [16b, 7-Cyano-N-(p-tolyl)-6-(3,4,5-trimethoxybenzamido)-2,3-dihydro-1H-pyrrolizine-5-carboxamide] | 0.18 ± 0.043 µM | 32.51 | 0.092 ± 0.001 µM | 63.60 | 0.068 ± 0.009 µM | 86.04 | 0.113 µM | 5.85 ± 1.19 µM | 6.22 ± 0.22% | 13.01 ± 1.02% | 75.00 ± 2.90% | 7.11% and 7.11 ± 0.80% |  | 0.265 ± 0.021 µM | 265 to 267 °C
COc1cc(C(=O)Nc2c(C#N)c3n(c2C(=O)Nc2ccc(Cl)cc2)CCC3)cc(OC)c1OC [16d, N-(4-Chlorophenyl)-7-cyano-6-(3,4,5-trimethoxybenzamido) -2,3-dihydro-1H-pyrrolizine-5-carboxamide] | 0.03 ± 0.005 µM | 270.00 | 0.097 ± 0.001 µM | 83.51 | 0.071 ± 0.001 µM | 114.08 | 0.066 µM | 8.1 ± 0.897 µM | 7.50 ± 0.95% | 19.94 ± 1.30% | 71.99 ± 2.88% | 2.51% and 2.51 ± 0.45% |  | 0.113 ± 0.017 µM | 281 to 283 °C
